Patent publication US9260425B2 (Genetech, Inc., priority 2011, dated 2016)

Target: Pim-1 (Homo sapiens (Human), UniProt P11309)
Assay: Pim kinase binding activity assay (Example 901), PIM-1 enzyme, Caliper microfluidic peptide phosphorylation
Type: biochemical
Conditions: 20 pM PIM-1, 10 μM ATP, 1 μM FAM-peptide, 90 minutes at room temperature
Protocol: Pim Kinase Binding Activity
A fluorescent-labeled Pim-specific peptide substrate, was custom synthesized by American Peptide Company (Sunnyvale, Calif.). Reaction Buffer contained 10 mM HEPES, pH 7.2, 10 mM MgCl2, 0.01% Tween 20, 2 mM DTT. Termination Buffer contained 190 mM HEPES, pH 7.2, 0.015% Brij-35, 0.2% Coating Reagent 3 (Caliper Life Sciences, Hopkinton, Mass.), 20 mM EDTA. Separation Buffer contained 100 mM HEPES, pH 7.2, 0.015% Brij-35, 0.1% Coating Reagent 3, 1:200 Coating Reagent 8 (Caliper Life Sciences, Hopkinton, Mass.), 10 mM EDTA and 5% DMSO.
PIM reactions were carried out in a final volume of 10 μL per well in a 384-well plate. A standard enzymatic reaction, initiated by the addition of 5 μL 2×ATP and test compound to 5 μL of 2× enzyme and FAM-peptide, contained 20 pM PIM-1, 50 pM PIM-2, or 55 pM PIM-3, 1 μM FAM-peptide, and 10 μM ATP, in Reaction Buffer. After 90 minutes of incubation at room temperature, the phosphorylation reaction was stopped by the addition of 10 μL Termination Buffer. The product and substrate in each independent reaction were separated on a 12-sipper microfluidic chip (Caliper Life Sciences, Hopkinton, Mass.) run on a Caliper LC3000® (Caliper Life Sciences, Hopkinton, Mass.). The separation of product and substrate was optimized by choosing voltages and pressure using Caliper's Optimizer software (Hopkinton, Mass.). […] The product and substrate fluorophore were excited at 488 nm and detected at 530 nm. Substrate conversion was calculated from the electropherogram using HTS Well Analyzer software (Caliper Life Sciences, Hopkinton, Mass.). Ki values for the test compound were calculated.

Sequence of Pim-1 (P11309 whole entry): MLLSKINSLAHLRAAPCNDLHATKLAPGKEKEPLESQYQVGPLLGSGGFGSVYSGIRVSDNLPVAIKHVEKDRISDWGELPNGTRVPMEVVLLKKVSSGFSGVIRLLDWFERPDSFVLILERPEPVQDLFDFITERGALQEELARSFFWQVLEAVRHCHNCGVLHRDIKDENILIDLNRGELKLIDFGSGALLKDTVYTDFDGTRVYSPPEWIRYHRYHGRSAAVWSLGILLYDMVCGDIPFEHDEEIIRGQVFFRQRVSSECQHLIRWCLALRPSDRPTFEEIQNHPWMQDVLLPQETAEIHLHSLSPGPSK

| SMILES | Ki [nM] |
| --- | --- |
| CN1CCN(c2n[nH]c3cnc(-c4cccnc4)cc23)C1=O [Example 254, 1-methyl-3-(5-(pyridin-3-yl)-1H-pyrazolo[3,4-c]pyridin-3-yl)imidazolidin-2-one] | 18.5 |
| CNC(=O)C1(N)CCN(c2cccc(-c3n[nH]c4cnc(-c5cccnc5)cc34)n2)CC1 [Example 236, 4-amino-N-methyl-1-(6-(5-(pyridin-3-yl)-1H-pyrazolo[3,4-c]pyridin-3-yl)pyridin-2-yl)piperidine-4-carboxamide] | 0.353 |
| CNc1cccc(-c2n[nH]c3cnc(-c4cccnc4)cc23)n1 [Example 437, N-methyl-6-(5-(pyridin-3-yl)-1H-pyrazolo[3,4-c]pyridin-3-yl)pyridin-2-amine] | 0.409 |
| CCc1ccc(-c2n[nH]c3cnc(-c4cccnc4)cc23)nc1N1CCC[C@H](N)C1 [Example 327, (S)-1-(3-ethyl-6-(5-(pyridin-3-yl)-1H-pyrazolo[3,4-c]pyridin-3-yl)pyridin-2-yl)piperidin-3-amine] | 0.035 |
| C=C(C)c1ccc(-c2n[nH]c3cnc(-c4cnn(CC)c4)cc23)nc1N1CCC[C@H](N)C1 [Example 427, (S)-1-(6-(5-(1-ethyl-1H-pyrazol-4-yl)-1H-pyrazolo[3,4-c]pyridin-3-yl)-3-(prop-1-en-2-yl)pyridin-2-yl)piperidin-3-amine] | 0.016 |
| CS(=O)(=O)c1cncc(-c2cc3c(-c4cccc(N5CCNCC5)n4)n[nH]c3cn2)c1 [Example 470, 5-(5-(methylsulfonyl)pyridin-3-yl)-3-(6-(piperazin-1-yl)pyridin-2-yl)-1H-pyrazolo[3,4-c]pyridine] | 0.049 |
| CCCn1cc(-c2cc3c(-c4cccc(N5CCNCC5)n4)n[nH]c3cn2)cn1 [Example 375, 3-(6-(piperazin-1-yl)pyridin-2-yl)-5-(1-propyl-1H-pyrazol-4-yl)-1H-pyrazolo[3,4-c]pyridine] | 0.039 |
| Cn1cc(-c2cc3c(-c4ccc(Br)c(N5CCC[C@H](O)C5)n4)n[nH]c3cn2)cn1 [Example 393, (S)-1-(3-bromo-6-(5-(1-methyl-1H-pyrazol-4-yl)-1H-pyrazolo[3,4-c]pyridin-3-yl)pyridin-2-yl)piperidin-3-ol] | 0.333 |
| Cc1ccc(-c2n[nH]c3cnc(-c4cccnc4)cc23)nc1N1CCC[C@@H](N)C1 [Example 310, (R)-1-(3-methyl-6-(5-(pyridin-3-yl)-1H-pyrazolo[3,4-c]pyridin-3-yl)pyridin-2-yl)piperidin-3-amine] | 0.137 |
| Cn1cc(-c2cc3c(CC#N)n[nH]c3cn2)cn1 [Example 135, 2-(5-(1-methyl-1H-pyrazol-4-yl)1H-pyrazolo[3,4-c]pyridin-3-yl)acetonitrile] | 387 |
| Cc1ccc(-c2n[nH]c3cnc(-c4cccnc4)cc23)nc1N1CC[C@H](N)C1 [Example 317, (S)-1-(3-methyl-6-(5-(pyridin-3-yl)-1H-pyrazolo[3,4-c]pyridin-3-yl)pyridin-2-yl)pyrrolidin-3-amine] | 0.059 |
| N[C@@H]1CCCCN(c2cccc(-c3n[nH]c4cnc(-c5cnn(CCF)c5)cc34)n2)C1 [Example 520, (R)-1-(6-(5-(1-(2-fluoroethyl)-1H-pyrazol-4-yl)-1H-pyrazolo[3,4-c]pyridin-3-yl)pyridin-2-yl)azepan-3-amine] | 0.098 |
| Cc1ccc(-c2n[nH]c3cnc(-c4cnn(C)c4)cc23)nc1N1CC(N2CCS(=O)(=O)CC2)C1 [Example 413, 4-(1-(3-methyl-6-(5-(1-methyl-1H-pyrazol-4-yl)-1H-pyrazolo[3,4-c]pyridin-3-yl)pyridin-2-yl)azetidin-3-yl)-1,1-dioxo thiomorpholine] | 1.02 |
| CCn1cc(-c2cc3c(-c4cccc(N5CCN(C)CC5)n4)n[nH]c3cn2)cn1 [Example 372, 5-(1-ethyl-1H-pyrazol-4-yl)-3-(6-(4-methylpiperazin-1-yl)pyridin-2-yl)-1H-pyrazolo[3,4-c]pyridine] | 0.268 |
| Fc1cccc(-c2n[nH]c3cnc(-c4cccnc4)cc23)n1 [Example 131, 3-(6-fluoropyridin-2-yl)-5-(pyridin-3-yl)-1H-pyrazolo[3,4-c]pyridine] | 13.1 |
| O=C1OCCN1c1cc2c(-c3cccc(N4CCCCC4)n3)n[nH]c2cn1 [Example 373, 3-(3-(6-(piperidin-1-yl)pyridin-2-yl)-1H-pyrazolo[3,4-c]pyridin-5-yl)oxazolidin-2-one] | 483 |
| Cc1ccc(-c2cc3c(-c4cccc(N5CCNCC5)n4)n[nH]c3cn2)cn1 [Example 367] | 0.217 |

| SMILES | Ki [nM] |
| --- | --- |
| Cc1n[nH]c2cnc(-c3cnccc3N3CCC[C@@H](N)C3)cc12 [Example 119, (R)-1-(3-(3-methyl-1H-pyrazolo[3,4-c]pyridin-5-yl)pyridin-4-yl)piperidin-3-amine] | 1100 |
| CCn1cc(-c2cc3c(-c4cccc(N5CCC[C@](C)(O)C5)n4)n[nH]c3cn2)cn1 [Example 464, (S)-1-(6-(5-(1-ethyl-1H-pyrazol-4-yl)-1H-pyrazolo[3,4-c]pyridin-3-yl)pyridine-2-yl)-3-methylpiperidin-3-ol] | 0.0721 |
| C=Cc1ccc(-c2n[nH]c3cnc(-c4cnn(C)c4)cc23)nc1N1CCC[C@H](N)C1 [Example 412, (S)-1-(6-(5-(1-methyl-1H-pyrazol-4-yl)-1H-pyrazolo[3,4-c]pyridin-3-yl)-3-vinylpyridin-2-yl)piperidin-3-amine] | 0.036 |
| CC(C)c1ccc(-c2n[nH]c3cnc(-c4cccnc4)cc23)nc1N1CCC[C@H](N)C1 [Example 328, (S)-1-(3-isopropyl-6-(5-(pyridin-3-yl)-1H-pyrazolo[3,4-c]pyridin-3-yl)pyridin-2-yl)piperidin-3-amine] | 0.046 |
| Cc1ccc(-c2n[nH]c3cnc(-c4cccnc4)cc23)nc1F [Example 274, 3-(6-fluoro-5-methylpyridin-2-yl)-5-(pyridin-3-yl)-1H-pyrazolo[3,4-c]pyridine] | 4.77 |
| Cc1ccc(-c2n[nH]c3cnc(-c4cccnc4)cc23)nc1N1CCC[C@@H](O)C1 [Example 309, (R)-1-(3-methyl-6-(5-(pyridin-3-yl)-1H-pyrazolo[3,4-c]pyridin-3-yl)pyridin-2-yl)piperidin-3-ol] | 0.112 |
| Cc1ccc(-c2n[nH]c3cnc(-c4cccnc4)cc23)nc1N1CCN(C)CC1 [Example 257, 3-(5-methyl-6-(4-methylpiperazin-1-yl)pyridin-2-yl)-5-(pyridin-3-yl)-1H-pyrazolo[3,4-c]pyridine] | 0.032 |
| O=C(NC1CCNCC1)c1cccc(-c2n[nH]c3cnc(-c4cccnc4)cc23)n1 [Example 337, N-(piperidin-4-yl)-6-(5-(pyridin-3-yl)-1H-pyrazolo[3,4-c]pyridin-3-yl)picolinamide] | 30.5 |
| Cn1cc(-c2cc3c(-c4cnn(CC(C)(C)O)c4)n[nH]c3cn2)cn1 [Example 250, 2-methyl-1-(4-(5-(1-methyl-1H-pyrazol-4-yl)-1H-pyrazolo[3,4-c]pyridin-3-yl)-1H-pyrazol-1-yl)propan-2-ol] | 0.389 |
| c1cncc(-c2cc3c(-c4cc[nH]n4)n[nH]c3cn2)c1 [Example 193, 3-(1H-pyrazol-3-yl)-5-(pyridin-3-yl)-1H-pyrazolo[3,4-c]pyridine] | 2.63 |
| Cc1ccc(-c2n[nH]c3cnc(-c4cnn(C)c4)cc23)nc1N1CCC[C@H](O)C1 [Example 441, (S)-1-(3-methyl-6-(5-(1-methyl-1H-pyrazol-4-yl)-1H-pyrazolo[3,4-c]pyridin-3-yl)pyridin-2-yl)piperidin-3-ol] | 0.062 |
| CCn1cc(-c2cc3c(-c4cccc(N5CC[C@@H](F)[C@H](N)C5)n4)n[nH]c3cn2)cn1 (relative stereo) [Example 462, trans-1-(6-(5-(1-ethyl-1H-pyrazol-4-yl)-1H-pyrazolo[3,4-c]pyridin-3-yl)pyridin-2-yl)-4-fluoropiperidin-3-amine] | 0.55 |
| N[C@H]1CCCC(Nc2cccc(-c3n[nH]c4cnc(-c5cccnc5)cc34)n2)C1 (stereo in doubt) [Example 245, (1S,3S)—N1-(6-(5-(pyridin-3-yl)-1H-pyrazolo[3,4-c]pyridin-3-yl)pyridin-2-yl)cyclohexane-1,3-diamine] | 0.0079 |
| C1=C(c2n[nH]c3cnc(-c4cccnc4)cc23)CCCO1 [Example 281, 3-(3,4-dihydro-2H-pyran-5-yl)-5-(pyridin-3-yl)-1H-pyrazolo[3,4-c]pyridine] | 28.8 |
| N[C@H]1CCCN(c2cccc(-c3n[nH]c4cnc(-n5ccnc5)cc34)n2)C1 [Example 380, (S)-1-(6-(5-(1H-imidazol-1-yl)-1H-pyrazolo[3,4-c]pyridin-3-yl)pyridin-2-yl)piperidin-3-amine] | 0.523 |
| CCn1cc(-c2cc3c(-c4cccc(N5CCNCC(F)(F)C5)n4)n[nH]c3cn2)cn1 [Example 447, 3-(6-(6,6-difluoro-1,4-diazepan-1-yl)pyridin-2-yl)-5-(1-ethyl-1H-pyrazol-4-yl)-1H-pyrazolo[3,4-c]pyridine] | 0.029 |
| OCCn1cc(-c2cc3c(-c4cccc(N5CCNCC5)n4)n[nH]c3cn2)cn1 [Example 496, 2-(4-(3-(6-(piperazin-1-yl)pyridin-2-yl)-1H-pyrazolo[3,4-c]pyridin-5-yl)-1H-pyrazol-1-yl)ethanol] | 0.13 |
